Columns and labels:
caspase 3 = assay: Caspase activity assay: Ac-DEVD-pNA cleavage by lysates of HEF1-expressing MCF-7 cells; type: biochemical, human; conditions: z-DEVD-fmk 0.5 μM; Ac-DEVD-pNA 250 μM; lysates of induced HEF1 cells; 24 hr; 405 nm
Protocol: HEF1 expression and caspase activity. Stable cell lines containing parental tetracycline-regulatable vector with or without the full length HEF1 cDNA were generated in MCF-7 cells (Example 2). These were plated at a density of approximately 1×10^6 cells per 100 mm plate into fresh DMEM plus 10% fetal bovine serum in the absence of tetracycline and other selective antibiotics (induced) or in the presence of 1 μg/ml tetracycline (uninduced). Floating and attached cells were combined and extracted in caspase assay buffer (50 mM HEPES, pH 7.4, 100 mM NaCl, 0.1% CHAPS, 10 mM DTT, 1 mM EDTA, and 10% glycerol). Protein content of extracts was determined using the Bio-Rad protein assay as per the manufacturer's instructions (Bio-Rad, Hercules, Calif.). Caspase assays were performed as previously described (DiPietrantonio et al. (1999) Biochem Biophys Res Commun 255:477-82). […] Triplicate samples were incubated at room temperature and the release of pNA product was monitored at 405 nm a microtiter plate reader (Multiskan Plus, Labsystems, Helsinki. Finland). Initial readings were taken at the start of the incubation (T0) and final readings were taken at the completion of the reaction at 24 hr (T1). The change in absorbance over time was determined by subtracting T0 from T1 for each sample.

MCF-7 cells = assay: Induction of apoptosis by TNF-α in MCF-7 cells, Western blot of caspase cleavage products and cell death; type: cell-based, human; conditions: 48 hours
Protocol: Induction of apoptosis. MCF-7 cells were plated and grown for 48 hours reaching a cell density of 70% prior to TNF-α addition. Media was replaced with fresh media supplemented with 100 ng/ml TNF-α. TNF-α treatment of stable cell lines was carried out by plating, cells directly into fresh DMEM plus 10% fetal bovine serum, with or without addition of tetracycline as indicated, containing 100 ng/ml TNF-α. Cells floating in the media were collected by centrifugation (1,200 rpm, 5 min) and extracted in combination with attached cells at the time points indicated, as described below. WeHI 231 cells were plated at a density of 5×10^4 cells/ml and treated with 1 μg/ml of α-IgM antibodies in complete media. Cells were collected by centrifugation and lysed as stated below.
Lysates were made as previously described (39; 41) in A-PTY buffer (50 mM HEPES, pH 7.5, 50 mM NaCl, 5 mM EDTA, 1% Triton X-100, 50 mM NaF, 10 mM Na4P2O7 and supplemented each extraction with 1 mM phenylmethylsulfonylfluoride, 0.01 mg/ml aprotinin and 0.01 mg/ml leupeptin). For adherent cultures, floating cells were pooled with the adherent cells prior to lysis. The cell pellet was then lysed in combination with lysates from the attached cells. […] Detection was via chemiluminescence as described (Law et al. (1996) Mol. Cell. Biol. 16: 3327-3337).

[1] = molecular target: the molecule itself; assay: yeast two-hybrid analysis
From the text: EGY48 yeast (Gyuris et al., 1993, supra) were transformed by standard methods with plasmids expressing LexA-fusions, activation-domain fusions, or both, together with the LexA operator-LacZ reporter SH18-34 (Gyuris et al., 1993, supra). For all fusion proteins, synthesis of a fusion protein of the correct length in yeast was confirmed by Western blot assays of yeast extracts (Samson et al., Cell 57: 1045–1052, 1989) using polyclonal antiserum specific for LexA (Brent and Ptashne, Nature 312: 612–615, 1984) or for hemagglutinin (Babco, Inc), as appropriate. Activation of the LacZ reporter was determined as previously described (Brent and Ptashne, Cell 43: 729–736, 1985). Beta-galactosidase assays were performed on three independent colonies, on three separate occasions, and values for particular plasmid combinations varied less than 25%. Activation of the LEU2 reporter was determined by observing the colony forming ability of yeast plated on complete minimal medium lacking leucine. The LexA-PRD/HD expressing plasmid has been described (Golemis and Brent, Mol. Cell Biol. 12: 3006–3014, 1992).
The possible functions for the novel carboxy-terminal domains were investigated further using two-hybrid analysis.

In the case of z-DEVD-fmk, the “activity towards the caspase 3 substrate Ac-DEVD-pNA in HEF1 expressing cells” value (caspase 3) is reported as “potently blocked”.

TNF-α was tested, and the “cell rounding and death, gross morphology” value (MCF-7 cells; TNF-α alone, uninduced cells) was “low level of cell rounding and death”, the cell death (MCF-7 cells; TNF-α together with HEF1 induction) was roughly 100% and the PARP cleavage (MCF-7 cells; uninduced HEF1 cells and vector control MCF-7 cells, TNF-α) was “detected”.

B1: HEF1 carboxy-terminal domain (other)
chain: IMKQNKMQLEHHQLSQFQLLEQEITKPVENDISKWKPSQSLPTTNSGVSAQDRQLLCFYYDQCETHFISLLNAIDALFSCVSSAQPPRIFVAHSKFVILSAHKLVFIGDTLTRQVTAQDIRNKVMNSSNQLCEQLKTIVMATKMAALHYPSTTALQEMVHQVTDLSRNAQLFKRSLLEMATF
notes: Tested as a two-hybrid fusion; also called C-terminal effector domain; HEF1-Cterm182
B1: binds [1].
